Measurements taken from US8822211B2, “Device and method for concentrating and detecting pathogenic microbes from blood products and/or their derivatives” (Becton Dickinson Infusion Therapy Systems Inc., priority 2001, dated 2014).
Several values for one entry are separate records, joined by “and”; a condition that tells them apart may be missing. Equal values may be shown once.

Tests used:
Assay type in all cases: cell-based
[1] = system: Staphylococcus epidermidis; assay: Platelet aggregation with ADP in the presence of pathogenic microbes, bacteria counting; details: 10 μM ADP
Procedure: Platelet aggregation in the presence of ADP comprised the following steps:
a cryobead of Staphylococcus epidermidis was introduced into a tube of 9 ml of tryptone soy broth and incubated at 37° C. for 18-24 hours;
onto 400 μl of platelet concentrate there was added 50 μl of the suspension of Staph. epidermidis and 50 μl of ADP;
(§1) the tubes were agitated manually for 5 minutes at ambient temperature;
500 μl of PBS buffer was added;
filtration was performed on a filter with a porosity of 5 μm;
dilutions were made in series of 1/20 and 1/10 and 1/10;
100 μl of the sample was filtered on a CB04 membrane;
labeling with an esterase was performed; and
The pathogenic microbes were seeded at a high concentration to augment a possible trapping effect. ADP was added to the platelets and the bacteria at a concentration of […].

[2] = system: platelets (platelet concentrate PC 6); assay: Platelet aggregation with thrombin, counting of residual platelets after 11 μm filtration; details: 10 IU thrombin per test, PC 6, 5 minutes, 11 μm filter
Procedure: Thrombin is a strong agonist of platelet aggregation. Thrombin solutions (reference T8885 Sigma) were prepared at a concentration of 100 IU/ml when used at the rate of 10 IU/test and in diluted solution form (100 μl of thrombin mother solution with the addition of 900 μl of PBS buffer) when used at the rate of 1 IU/test.
Platelet aggregation by the intermediary of thrombin comprised:
placing 160 μl of platelet concentrate in a tube to which was added 20 μl of PBS buffer and 20 μl of thrombin;
as §1
800 μl of PBS buffer was added to the tubes;
the content of the tubes was filtered on a filter with a porosity of 11 μm;
dilutions were created in series 1/20 to 1/10 from the filtrates;
[…] of each dilution of the filtrate on a CB04 membrane were filtered;
an esterase labeling was performed; and
the platelets possibly retained on the membrane were counted.

[3] = system: E. coli; assay: Platelet aggregation with thrombin in the presence of pathogenic microbes, bacteria counting; details: for Counting results (E. coli): PC 6, 11 μm filter
Procedure: The experimental studies performed to evaluate the aggregation of pathogenic microbes in the presence of thrombin comprised the following steps:
a cryobead of E. coli was introduced into a tube of 9 ml of tryptone soy broth and incubated at 37° C. for 18-24 hours;
160 μl of platelet concentrate was added to 20 μl of the E. coli suspension and 20 μl of thrombin;
the tube was agitated manually for 5 minutes at ambient temperature;
800 μl of PBS buffer was added;
filtration was performed through a filter of 11 μm porosity;
dilutions in series were performed: 1/20 and 1/10 and 1/10;
filtration was performed on 100 μl of sample on a CB04 membrane;
labeling with esterase was performed; and […]

Compound | bacteria recovered after the aggregation step ([1]; PC 6) [%] | Concentration bacteria/ml ([1]; PC 6, 5 μm filter) [bacteria/ml] | Results (bacteria count) ([1]; PC 6, 5 μm filter) | platelet count after aggregation and filtration [2] | Counting results (E. coli) ([3]; 1 IU thrombin) | Counting results (E. coli) ([3]; 10 IU thrombin) | clot formation after addition ([3]; platelet concentrate with E. coli)
Nc1ncnc2c1ncn2[C@@H]1O[C@H](COP(=O)(O)OP(=O)(O)O)[C@@H](O)[C@H]1O [ADP] | 74 | 4.7E+07 | 492 and 441 |  |  |  | 
Thrombin |  |  |  | 44 and 30 | 140 and 167 | 109 and 122 | A clot appeared almost instantly
